Read-outs that look alike come from different tables or passages of the source.
Assays:
p-S6 S235/236 = test: Immunohistochemistry of TMD8 xenograft tumor samples; format: in vivo, mice; settings: PI3Kδ inhibitor 5 mg/kg, Compound B 10 mg/kg; data not shown
Procedure: (§1) Paraffin sections of the tumor samples were prepared for immunohistochemistry. Slides were prepared with EZ Prep (Ventana Medical Systems) CC1 (Ventana Medical Systems) and rinsed with Reaction Buffer (Ventana Medical Systems). Slides were incubated with ChromoMap Inhibitor (Venatana Medical Systems) and rinsed a Reaction Buffer rinse before incubating with anti-pS6 (S235/236) rabbit monoclonal antibody (Cell Signaling Technology) at 0.02 ug/mL or anti-c-MYC rabbit monoclonal antibody (Abcam Inc.) at 0.3 ug/mL. After 1 hour at room temperature, the slides were incubated sequentially with Anti-Rabbit HQ (Ventana Medical Systems), Anti-HQ HRP (Ventana Medical Systems) hydrogen peroxide CM (Ventana Medical Systems), Copper CM (Ventana Medical Systems), and Hematoxylin II. Slides were imaged using the Leica AT2 digital slide scanner (Leica Microsystems Inc.) and documented in Digital Image Hub (DIH-SlidePath).

c-MYC [1] = test: as above; format: in vivo, mice; settings: PI3Kδ inhibitor 5 mg/kg, Compound B 10 mg/kg; data not shown
Procedure: as §1

[2] = test system: TMD8^S (DMSO passage matched, idelalisib-sensitive line); test: CellTiter-Glo viability assay at 96 h; format: cell-based; settings: for cell growth: FIG. 23A
Procedure: (§2) Growth inhibition to Idelalisib or other inhibitors was assessed using CellTiter-Glo viability assay at 96 h. […] Cell lines were analyzed by whole exome sequencing, RNASeq, and phosphoproteomics. Protein expression was measured using Simple Western and SDS/PAGE and western blot. Caspase 3/7 was measured using Caspase-Glo 3/7 assay; apoptosis was measured with Annexin V assay and propidium iodide by flow cytometry.
(§3) Cell viability EC50 was determined using a sigmoidal dose-response (variable slope) curve generated from quadruplicate samples. Statistical significance was determined using the student's t-test for cell viability and two-tailed paired t-test for apoptosis experiments in Prism (GraphPad).
Idelalisib-resistant (TMD8^R) cell line and passage-matched Idelalisib-sensitive (TMD8^S) cell line were generated according to the procedure described in Example 5 above. To characterize the resistant cells, cell viability assays, RNASeq of multidrug resistance (MDR) family of ABC transporter genes (N=33), apoptosis assays, and phosphoprotein analysis were performed. Cell viability was measured using CellTiter-Glo, as described in Example 1A above. Western blot and protein level analysis were performed after treatment with 420 nM idelalisib, 320 nM Compound B and combination thereof, using Peggy Sue (ProteinSimple) automated Western Blot system. Protein concentration (pg/μL) was quantitated using recombinant protein standards. Normalized AUC were determined for each of the treatment groups, normalized to actin. Apoptosis was assessed by propidium iodide and Annexin V/FITC staining and measured by flow cytometry, as described in Example 1A above. Western Blot with anti-p-AKT (S473) antibody and Peggy Sue were used to determine the phosphorylation state of downstream signaling components.

FSCCL (WSU-FSCCL) = test: CellTiter Glo viability assay after 96 h; format: cell-based; settings: read-out: EC50, cell viability
Procedure: (§4) Idelalisib resistance was established by continuous passaging of a clonal isolate of WSU-FSCCL in the presence of 1 μM idelalisib; clonal isolates from a passage-matched line (FSCCL^S) and idelalisib-resistant line (FSCCL^R) were generated through 2 rounds of single-cell-limiting dilution. Growth inhibition to idelalisib or other inhibitors was performed after 96 h using CellTiter Glo viability assay. Characterization of mutations and gene expression were identified by whole exome sequencing and RNA-Seq, respectively. Whole cell lysates were analyzed by western blots.

FSCCL^R = test: CellTiter Glo viability assay after 96 h; format: cell-based; settings: FIG. 16, read-out: EC50, cell viability
Procedure: as §4

FSCCL^S = test: CellTiter Glo viability assay after 96 h; format: cell-based
Procedure: as §4

[3] = test system: FSCCL^R clone 1 (PI3KCA E970K); test: CellTiter Glo viability assay after 96 h; format: cell-based; settings: single agent, read-out: EC50
Procedure: as §4

FSCCL^R SFK^HIGH = test: CellTiter Glo viability assay after 96 h; format: cell-based
Procedure: as §4

[4] = test system: FSCCL^R clone 2 (PI3KCA N345K); test: CellTiter Glo viability assay after 96 h; format: cell-based; settings: single agent, read-out: EC50
Procedure: as §4

[5] = test system: FSCCL^R clone 3 (PI3KCA P539R); test: CellTiter Glo viability assay after 96 h; format: cell-based; settings: single agent, read-out: EC50
Procedure: as §4

[6] = cited from earlier work
parental TMD-8 = test: 96-hour Cell Titer Glo viability assay, parental line; design: Emax: dose or concentration left out as unconfirmed; settings: Homo sapiens
TMD8 = test: CellTiter-Glo viability assay at 96 h (Example 5); format: cell-based; settings: Homo sapiens
Procedure: as §2, §3

c-Myc [7] = test: c-Myc RNAseq and western blot in ABC-DLBCL cell lines; format: cell-based
Procedure: Gene expression levels and mutations were determined by […]. The following bioinformatics platforms were used to analyze the sequence reads: DNA sequencing reads were aligned to human reference genome by BWA. Single nucleotide variants were identified using VarScan and were annotated using SnpEff Putative somatic mutations were prioritized by mutant allele frequency, recurrence and predicted functional impact. RNA sequencing reads were aligned to human reference genome using STAR and RNA abundance was quantified using RSEM. The Bioconductor package edgeR was used to normalize sequence count and limma was used to conduct differential gene expression analysis.
Protein expression was measured using Simple Western, SDS/PAGE and Western Blot or Peggy Sue (ProteinSimple), generally according to the procedures described above in Example 3B. Primary antibodies used to test phosphorylated protein or total protein levels include antibodies against: p-AKT (S473), p-AKT (T308), AKT, p-ERK (T202/Y204), p-S6 (S235/236), S6, p-PDK1 (S241), p-PLCγ2 (Y1217), p-GSK3β (S9), p-STAT3 (Y705), p-IκBα (S32), IκBα, p-SYK (Y525/526), p-BTK (Y223), PI3Kγ, PTEN, and actin.

Structure (SMILES): CC#CC(=O)N1CC[C@@H](n2c(=O)n(-c3ccc(Oc4ccccc4)cc3)c3c(N)ncnc32)C1 [Compound B, 6-amino-9-[(3R)-1-(2-butynoyl)-3-pyrrolidinyl]-7-(4-phenoxyphenyl)-7,9-dihydro-8H-purin-8-one]
- p-S6 signal, IHC (p-S6 S235/236): did not reduce
- c-MYC signal, IHC (c-MYC [1]): did not reduce
- cell growth [2]: inhibited cell growth
- EC50 ([2]; unit inferred, read-out: EC50, cell viability): 1.2 nM

Structure (SMILES): CCC(Nc1ncnc2[nH]cnc12)c1nc2cccc(F)c2c(=O)n1-c1ccccc1 (stereo not shown) [Idelalisib, 2-(1-((9H-Purin-6-yl)amino)propyl)-5-fluoro-3-phenylquinazolin-4(3H)-one]
- EC50 (FSCCL (WSU-FSCCL)): 140 nM
- EC50 (FSCCL^R): > 10000 nM
- EC50 (FSCCL^S; FIG. 16, read-out: EC50, cell viability): 100 nM
- EC50 (FSCCL^S; PI3KCA WT, Table 13, single agent, read-out: EC50): 110 nM
- EC50 (FSCCL^S; Table 14, single agent, read-out: EC50): 213 nM
- EC50 (FSCCL^S; Table 15, single agent, read-out: EC50): 213 nM
- EC50 [3]: > 3000 nM
- EC50 (FSCCL^R SFK^HIGH; read-out: EC50 IDELA (+Dasatinib 10 nM)): 1880 nM
- EC50 (FSCCL^R SFK^HIGH; read-out: EC50 IDELA (+ENTO 680 nM)): 2270 nM
- EC50 [4]: > 3000 nM
- EC50 [5]: > 3000 nM
- clinical Cmin [6]: 103 nM
- Cmax ([6]; clinical): 591 nM
- EC50 ([2]; Example 7, read-out: EC50, cell viability): 220 nM
- cell growth [2]: inhibited cell growth
- inhibition at 1 µM ([2]; at 1 μM, read-out: Growth inhibition): 92%
- EC50 (parental TMD-8; TMD8, read-out: EC50, cell viability): 54 nM
- Emax (parental TMD-8; TMD8, read-out: Emax, growth inhibition): 86%
- EC50 (TMD8): 42 nM
- c-Myc mRNA (RNAseq) (c-Myc [7]; 500 nM idelalisib, sensitive cell lines (TMD8 and Ri-1)): c-Myc mRNA downregulation
- c-Myc (western blot) (c-Myc [7]; TMD8^S): inhibited
